These are literature values, as cited in US9566245B2, “Osmotic drug delivery system” (Supernus Pharmaceuticals, Inc., priority 2006, dated 2017).

For this data set the following is noted: treprostinil as the free acid.

Regarding `CCCCC[C@H](O)CC[C@@H]1[C@H]2Cc3cccc(OCC(=O)O)c3C[C@H]2C[C@H]1O` [treprostinil], the Absolute oral bioavailability result is on record as “less than 10%”.
